Assay results: publication PMC9995496, “A screen for MeCP2-TBL1 interaction inhibitors using a luminescence-based assay” (Scientific Reports, 2023)
One block for each molecule: values may come before it.

Molecular target: T1, MeCP2-TBL1 interaction (MeCP2-SmBiT / TBL1-LgBiT) (Mus musculus, UniProt Q9QXE7)
T1 construct: expressed in transfected cells; crude lysate used as a cell-free assay
T1 sequence (Q9QXE7 166-527): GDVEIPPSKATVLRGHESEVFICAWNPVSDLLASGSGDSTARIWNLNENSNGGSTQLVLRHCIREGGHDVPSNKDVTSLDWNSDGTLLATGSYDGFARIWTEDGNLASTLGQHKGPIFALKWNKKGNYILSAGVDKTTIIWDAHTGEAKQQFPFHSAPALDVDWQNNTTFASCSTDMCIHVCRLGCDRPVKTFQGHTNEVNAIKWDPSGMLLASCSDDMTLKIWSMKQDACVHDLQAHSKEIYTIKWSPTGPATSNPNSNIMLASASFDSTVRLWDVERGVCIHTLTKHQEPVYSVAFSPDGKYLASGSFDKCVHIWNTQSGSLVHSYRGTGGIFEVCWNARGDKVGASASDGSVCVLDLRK
Test: MeCP2-TBL1 NanoLuc luciferase complementation assay (cell-free, extracts of transfected HEK293 cells);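 also: each compound tested at 20 µM final concentration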
Format: binding, human
Outline: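 Cell-free split NanoLuc: lysate of HEK293 cells co-expressing the MeCP2 C-terminal half-SmBiT and TBL1 WD domain-LgBiT, mixed 1:1 with furimazine. After 30 min at room temperature, luminescence was plate-median normalized.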

[1] = primary screen of the Asinex library, sheet "Sargen output Asinex library", one well per compound
[2] = primary screen of the Asinex library, sheet "Sargen output Asinex library", one well per compound, Batch Ref. 1
[3] = primary screen of Asinex library, single well per compound

- Inhibition percent [1]: 2.74%
Compound: CC1(C)Oc2ccccc2[C@H]2O[C@H]3CCN(C(=O)c4cccc(OCC(=O)O)c4)C[C@@H]3C[C@@H]21 [BDG_34133285]

- Inhibition percent [2]: -2.82%
Compound: CC1(C)Oc2ccc(O)cc2[C@H]2O[C@H]3CCN(C(=O)c4cccc(OCC(=O)O)c4)[C@@H]3C[C@@H]21 [BDG_34133313]

- Inhibition percent [3]: 1.43
Compound: CC1(C)Oc2ccc(Cl)cc2[C@H]2O[C@H]3CCN(C(=O)c4ccccc4OCC(=O)O)C[C@H]3C[C@@H]21 [BDG_34133540]

- Inhibition percent [3]: 5.67
Compound: CC1(C)Oc2c(O)cccc2[C@H]2O[C@H]3CCN(C(=O)c4cccc(Cn5ccnc5)c4)[C@@H]3C[C@@H]21 [BDG_34133876]

- Inhibition percent [3]: 0.92
Compound: CC1(C)Oc2c(O)cccc2[C@@H]2O[C@@H]3CCN(C(=O)c4cccc(Cn5ccnc5)c4)[C@@H]3C[C@H]21 [BDG_34133887]

- Inhibition percent [2]: 1.73%
Compound: CC1(C)Oc2ccccc2[C@@H]2O[C@@H]3CCN(C(=O)c4cccc(Cn5ccnc5)c4)C[C@@H]3C[C@H]21 [BDG_34133919]

- Inhibition percent [2]: 2.78%
Compound: CC1(C)Oc2ccc(Cl)cc2[C@H]2O[C@H]3CCN(CC(=O)N4CC(=O)Nc5ccccc54)C[C@@H]3C[C@@H]21 [BDG_34134010]

- Inhibition percent [1]: 2.67%
Compound: CC1(C)Oc2c(O)cccc2[C@H]2O[C@H]3CCN(CC(=O)N4CC(=O)Nc5ccccc54)[C@@H]3C[C@@H]21 [BDG_34134040]

- Inhibition percent [2]: 3.72%
Compound: CC1(C)Oc2ccc(Cl)cc2[C@@H]2O[C@@H]3CCN(CC(=O)N4CC(=O)Nc5ccccc54)C[C@@H]3C[C@H]21 [BDG_34134082]

- Inhibition percent [2]: -0.70%
Compound: Cc1cc(O[C@@H]2C[C@@H](NC(=O)CCCC(=O)O)[C@H](N3CCc4ccccc4C3)[C@H]2O)cc(C(C)C)c1 [BDG_34135452]

- Inhibition percent [2]: -0.65%
Compound: O=C(O)CCCC(=O)N[C@@H]1C[C@@H](Oc2cccc(Cl)c2)[C@H](O)[C@H]1N1CCc2ccccc2C1 [BDG_34135462]

- Inhibition percent [1]: 1.42%
Compound: CN(Cc1ccccc1)[C@@H]1[C@@H](O)[C@H](Oc2ccc(F)c(F)c2)C[C@H]1NC(=O)CC(C)(C)CC(=O)O [BDG_34135525]

- Inhibition percent [3]: 1.25
Compound: CN(Cc1ccccc1)[C@@H]1[C@@H](O)[C@H](Oc2ccccc2F)C[C@H]1NC(=O)CC(C)(C)CC(=O)O [BDG_34135529]

- Inhibition percent [3]: 5.96
Compound: CN(Cc1ccc(F)cc1)[C@@H]1[C@@H](O)[C@H](Oc2ccccc2F)C[C@H]1NC(=O)CC(C)(C)CC(=O)O [BDG_34135530]

- Inhibition percent [3]: 1.33
Compound: CN(Cc1ccc(F)cc1)[C@@H]1[C@@H](O)[C@H](Oc2cccc(F)c2)C[C@H]1NC(=O)c1cccc(C(=O)O)c1 [BDG_34135616]

- Inhibition percent [2]: 7.09%
Compound: COC(=O)c1ccc(NC(=O)c2cccc(Br)c2OCC(=O)O)cc1 [BDG_51125744]

- Inhibition percent [3]: -0.06
Compound: CC1(C)Oc2ccc(C(=O)O)cc2[C@H]2O[C@H]3CCSC[C@H]3C[C@@H]21 [BDG_51128812]

- Inhibition percent [3]: -0.16
Compound: Cc1nc(Nc2ncc(C#N)s2)ccc1CC1COCCN(S(C)(=O)=O)C1 (centres unmarked) [BDG_51128826]

More lines, now with the values behind:

Compound: CC1(C)Oc2ccccc2[C@@H]2O[C@@H]3CCCN[C@@H]3C[C@H]21 [BDG_33956274]
- Inhibition percent [1]: -3.58%

Compound: CCOc1cccc2c1OC(C)(C)[C@@H]1C[C@@H]3CNCC[C@H]3O[C@@H]21 [BDG_33956280]
- Inhibition percent [1]: -0.94%

Compound: CC(C)=CCC[C@@]1(C)Oc2cc(OCCO)ccc2[C@H]2O[C@H]3CCN(C(=O)OC(C)(C)C)C[C@@H]3C[C@@H]21 [BDG_33958723]
- Inhibition percent [2]: 5.54%

Compound: COc1cccc2c1OC(C)(C)[C@H]1CC3(CCNCC3)[C@H](C)O[C@H]21 [BDG_33959669]
- Inhibition percent [1]: 0.05%

Compound: CC(C)[C@H](NC(=O)[C@H](C)N)C(=O)N1CCC[C@H]2O[C@H]3c4cc(Cl)ccc4OC(C)(C)[C@@H]3C[C@H]21 [BDG_34017951]
- Inhibition percent [2]: -1.63%

Compound: C[C@@H]1CC[C@@H]2[C@@H](C1)c1c(ccc(C(=O)NCC(C)(C)CN3CCCC3)c1O)OC2(C)C [BDG_34018827]
- Inhibition percent [3]: 1.80

Compound: C[C@@H]1CC[C@@H]2[C@@H](O1)c1cc(C(=O)NCCc3ccccc3)ccc1OC2(C)C [BDG_34018895]
- Inhibition percent [1]: -0.86%

Compound: CC(C)CCC[C@@]1(C)Oc2cc(O)ccc2[C@H]2OCC3(CCNCC3)C[C@@H]21 [BDG_34020305]
- Inhibition percent [3]: 19.22

Compound: CC(C)CCC[C@]1(C)Oc2ccccc2[C@H]2OCC3(CCCN3)C[C@@H]21 (some centres unmarked) [BDG_34020347]
- Inhibition percent [2]: 1.89%

Compound: O=C(NCCc1ccccc1)[C@@H]1[C@H](O)[C@@H](c2ccc(F)cc2)CN1C(=O)CCc1ccc(Cl)cc1 [BDG_34023221]
- Inhibition percent [1]: 2.58%

Compound: COC(=O)C[C@H]1CC[C@H]2[C@H](O1)c1cc(-c3ccccc3)ccc1OC2(C)C [BDG_34023292]
- Inhibition percent [2]: 2.57%

Compound: COc1ccc2c(c1)OC(C)(C)[C@H]1CC[C@H](C)O[C@H]21 [BDG_34023313]
- Inhibition percent [2]: -1.30%

Compound: C[C@@H]1CC[C@@H]2[C@@H](O1)c1cc(OCc3ccccc3)c(C=O)cc1OC2(C)C [BDG_34027484]
- Inhibition percent [1]: 0.0122%

Compound: C[C@@H]1CC[C@@H]2[C@@H](O1)c1cc(OCc3ccccc3)c(CO)cc1OC2(C)C [BDG_34027487]
- Inhibition percent [1]: -0.0357%

Compound: Cc1c(CN2C[C@H](c3ccc(F)cc3)[C@@H](O)[C@H]2C(=O)NCCc2ccccc2)[nH]c2ccc(F)cc12 [BDG_34027529]
- Inhibition percent [3]: 6.14

Compound: CC(C)C[C@H]1CN(C(=O)c2ccc(O)cc2)CC[C@H]1Nc1cccc(Cl)c1 [BDG_34030674]
- Inhibition percent [1]: 7.44%

Compound: CC1(C)Oc2ccc(O)cc2[C@H]2O[C@@H](c3ccccc3)CC[C@@H]21 [BDG_34039634]
- Inhibition percent [2]: 6.48%

Compound: CN(C)C(=O)[C@@H]1C[C@@H](n2cc(C(=O)NCCc3ccccc3)ccc2=O)[C@H](c2ccccc2)N1C [BDG_34039793]
- Inhibition percent [3]: 1.80

Compound: CC1(C)Oc2ccc(OCc3ccccc3)cc2[C@@H]2O[C@H](CC(=O)O)CC[C@H]21 [BDG_34041764]
- Inhibition percent [3]: 0.20

Compound: Cc1cc(O[C@@H]2C[C@@H](NC(=O)CCC(=O)O)[C@H](N3CCc4ccccc4C3)[C@H]2O)cc(C(C)C)c1 [BDG_34049574]
- Inhibition percent [2]: 0.88%

Compound: O=C(O)CCC(=O)N[C@@H]1C[C@@H](Oc2cccc(Cl)c2)[C@H](O)[C@H]1N1CCc2ccccc2C1 [BDG_34049608]
- Inhibition percent [2]: -0.68%

Compound: O=C(O)CCC(=O)N[C@@H]1C[C@@H](Oc2cccc(C(F)(F)F)c2)[C@H](O)[C@H]1N1CCc2ccccc2C1 [BDG_34049652]
- Inhibition percent [3]: -0.28

Compound: CN(Cc1ccccc1)[C@@H]1[C@@H](O)[C@H](Oc2cccc(C(F)(F)F)c2)C[C@H]1NC(=O)CCN [BDG_34056156]
- Inhibition percent [3]: -1.01

Compound: O=C(O)c1cc(F)ccc1Oc1ccccc1 [BDG_34062401]
- Inhibition percent [2]: -1.72%

Compound: CC1(C)Oc2cc(OCCCNS(C)(=O)=O)ccc2[C@@H]2O[C@H](CCc3ccc(F)cc3)CC[C@H]21 [BDG_34121335]
- Inhibition percent [2]: 5.43%

Compound: CC1(Cc2ccc(F)cc2)Cc2cc(C(=O)N(CCCc3ccc(Cl)cc3)CC(=O)O)ccc2O1 (centres unmarked) [BDG_34127624]
- Inhibition percent [2]: 0.89%

Compound: COc1cccc2c1OC(C)(C)[C@H]1C[C@@H]3[C@H](CCN3CC(=O)O)O[C@H]21 [BDG_34128979]
- Inhibition percent [3]: -2.31

Compound: COc1cccc2c1OC(C)(C)[C@H]1CC[C@H](C3CCN(CC(=O)O)CC3)O[C@H]21 [BDG_34129039]
- Inhibition percent [2]: -1.85%

Compound: CC1(C)Oc2cc(O)ccc2[C@@H]2O[C@@H]3CCCN(C(=O)CCCC(=O)O)[C@@H]3C[C@H]21 [BDG_34129513]
- Inhibition percent [2]: 5.44%

Compound: COc1cccc2c1OC(C)(C)[C@H]1CC[C@H](C3CCN(C(=O)CCCC(=O)O)CC3)O[C@H]21 [BDG_34129516]
- Inhibition percent [1]: -0.90%

Compound: CN(C)CCOc1cccc2c1OC(C)(C)[C@H]1C[C@H]3CN(C(=O)CCCC(=O)O)CC[C@@H]3O[C@H]21 [BDG_34129529]
- Inhibition percent [2]: 0.07%

Compound: CC1(C)C[C@H]2[C@H](CCCN2C(=O)CCCc2cn[nH]c2)N1c1cccc(C(F)(F)F)c1 [BDG_34130326]
- Inhibition percent [2]: 14.87%

Compound: O=C1CCCC[C@]2(CN(C(=O)CCCc3cn[nH]c3)C[C@H]2c2ccccc2F)N1 [BDG_34130330]
- Inhibition percent [3]: -3.21

Compound: CC1(C)Oc2c(cccc2C(F)(F)F)[C@@H]2O[C@@H]3CCN(C(=O)CCCc4cn[nH]c4)[C@@H]3C[C@H]21 [BDG_34130346]
- Inhibition percent [3]: 7.09

Compound: CC1(C)Oc2c(O)cccc2[C@@H]2O[C@@H]3CCN(C(=O)CCCc4cn[nH]c4)C[C@@H]3C[C@H]21 [BDG_34130377]
- Inhibition percent [3]: 1.08

Compound: CC(C)(CC(=O)O)CC(=O)N1CC[C@@H]2O[C@@H]3c4cc(Cl)ccc4OC(C)(C)[C@H]3C[C@@H]2C1 [BDG_34130555]
- Inhibition percent [3]: 0.45

Compound: CC(=O)NCCCCCC(=O)N1CC[C@H]2O[C@H]3c4cc(C(C)(C)C)ccc4OC(C)(C)[C@@H]3C[C@@H]21 [BDG_34131400]
- Inhibition percent [3]: 3.20

Compound: CC(=O)NCCCCCC(=O)N1C[C@@H](c2ccc(F)cc2)[C@@]2(CCCCC(=O)N2)C1 [BDG_34131511]
- Inhibition percent [3]: 3.80

Compound: CCOc1cccc2c1OC(C)(C)[C@@H]1C[C@@H]3[C@@H](CCCN3C(=O)c3cccc(F)c3C(=O)O)O[C@@H]21 [BDG_34132357]
- Inhibition percent [3]: -0.29

Compound: COc1ccccc1N1[C@H]2CCCN(C(=O)c3cccc(OCC(=O)O)c3)[C@H]2CC1(C)C [BDG_34133274]
- Inhibition percent [3]: -3.82

Compound: O=C(O)COc1cccc(C(=O)N2C[C@@H](c3ccccc3F)[C@@]3(CCCCC(=O)N3)C2)c1 [BDG_34133280]
- Inhibition percent [3]: 2.13
